How the values were obtained:
Experiment in all cases: radiometric filter-binding kinase assay
EEF2K (human) = EEF2K (human) (UniProt O00418)
SRC (human) = SRC (human) (UniProt P12931)
MAP2K2 (human) = MAP2K2 (human) (UniProt P36507)
AURKB (human) = AURKB (human) (UniProt Q96GD4)
NTRK1 (human) = NTRK1 (human) (UniProt P04629)
MAP3K9 (human) = MAP3K9 (human) (UniProt P80192)
LCK (mouse) = conditions: accession and sequence are those of the human protein
INSRR (human) = INSRR (human) (UniProt P14616)
MYLK (human) = MYLK (human) (UniProt Q15746)
PRKCZ (human) = PRKCZ (human) (UniProt Q05513)
ROCK2 (rat) = conditions: accession and sequence are those of the human protein
MKNK1 (human) = MKNK1 (human) (UniProt Q9BUB5)
MAPK13 (human) = MAPK13 (human) (UniProt O15264)
MKNK2 (human) = MKNK2 (human) (UniProt Q9HBH9)
PRKACA (human) = PRKACA (human) (UniProt P17612)
TTK (human) = TTK (human) (UniProt P33981)
MAPKAPK3 (human) = MAPKAPK3 (human) (UniProt Q16644)
RPS6KA1 KD1 KD2 (human) = RPS6KA1 KD1 KD2 (human) (UniProt Q15418)
PRKAA1 or PRKAA2 (rat) = conditions: accession and sequence are those of the human protein
CSNK2A1 (human) = CSNK2A1 (human) (UniProt P68400)
GSK3B (human) = GSK3B (human) (UniProt P49841)
[1] = target: STK11 CAB39 STRADA (human) (UniProt Q9Y376+Q7RTN6+Q15831)
PHKG1 (human) = PHKG1 (human) (UniProt Q16816)
ERBB4 (human) = ERBB4 (human) (UniProt Q15303)
CSK (human) = CSK (human) (UniProt P41240)
MAPK1 (human) = MAPK1 (human) (UniProt P28482)
MINK1 (human) = MINK1 (human) (UniProt Q8N4C8)
MELK (human) = MELK (human) (UniProt Q14680)
DAPK1 (human) = DAPK1 (human) (UniProt P53355)
MARK4 (human) = MARK4 (human) (UniProt Q96L34)
IKBKB (human) = IKBKB (human) (UniProt O14920)
FGFR1 (human) = FGFR1 (human) (UniProt P11362)
CDK2 CCNA2 (human) = CDK2 CCNA2 (human) (UniProt P20248+P24941)
CHEK2 (human) = CHEK2 (human) (UniProt O96017)
EPHB3 (human) = EPHB3 (human) (UniProt P54753)
Sequence of EPHB3 (human) (P54753 whole entry, looked up): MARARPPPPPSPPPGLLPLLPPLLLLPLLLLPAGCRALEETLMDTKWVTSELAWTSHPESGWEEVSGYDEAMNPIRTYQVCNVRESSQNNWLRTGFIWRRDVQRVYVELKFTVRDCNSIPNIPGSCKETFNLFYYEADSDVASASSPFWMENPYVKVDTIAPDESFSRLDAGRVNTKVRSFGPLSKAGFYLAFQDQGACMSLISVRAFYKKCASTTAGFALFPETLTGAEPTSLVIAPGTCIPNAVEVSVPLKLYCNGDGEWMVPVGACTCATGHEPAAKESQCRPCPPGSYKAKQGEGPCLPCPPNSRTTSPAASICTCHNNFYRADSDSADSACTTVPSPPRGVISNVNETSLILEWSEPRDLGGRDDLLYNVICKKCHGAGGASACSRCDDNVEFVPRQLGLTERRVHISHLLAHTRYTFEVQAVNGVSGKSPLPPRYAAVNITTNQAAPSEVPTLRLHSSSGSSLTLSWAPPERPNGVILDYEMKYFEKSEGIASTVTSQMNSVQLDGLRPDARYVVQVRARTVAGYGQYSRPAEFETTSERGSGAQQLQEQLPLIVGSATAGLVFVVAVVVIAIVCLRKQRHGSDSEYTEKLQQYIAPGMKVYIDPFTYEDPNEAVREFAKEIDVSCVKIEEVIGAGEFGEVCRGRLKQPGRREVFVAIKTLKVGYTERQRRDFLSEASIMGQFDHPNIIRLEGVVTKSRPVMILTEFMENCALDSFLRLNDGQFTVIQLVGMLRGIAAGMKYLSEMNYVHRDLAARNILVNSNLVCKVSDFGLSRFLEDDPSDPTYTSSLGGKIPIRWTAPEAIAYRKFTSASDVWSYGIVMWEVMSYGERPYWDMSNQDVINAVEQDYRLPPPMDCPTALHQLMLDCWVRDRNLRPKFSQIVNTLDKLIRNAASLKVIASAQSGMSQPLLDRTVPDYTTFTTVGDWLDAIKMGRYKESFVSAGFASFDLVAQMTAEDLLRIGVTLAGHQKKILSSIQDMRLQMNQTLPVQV

Sequence of MAP3K9 (human) (P80192 whole entry, looked up): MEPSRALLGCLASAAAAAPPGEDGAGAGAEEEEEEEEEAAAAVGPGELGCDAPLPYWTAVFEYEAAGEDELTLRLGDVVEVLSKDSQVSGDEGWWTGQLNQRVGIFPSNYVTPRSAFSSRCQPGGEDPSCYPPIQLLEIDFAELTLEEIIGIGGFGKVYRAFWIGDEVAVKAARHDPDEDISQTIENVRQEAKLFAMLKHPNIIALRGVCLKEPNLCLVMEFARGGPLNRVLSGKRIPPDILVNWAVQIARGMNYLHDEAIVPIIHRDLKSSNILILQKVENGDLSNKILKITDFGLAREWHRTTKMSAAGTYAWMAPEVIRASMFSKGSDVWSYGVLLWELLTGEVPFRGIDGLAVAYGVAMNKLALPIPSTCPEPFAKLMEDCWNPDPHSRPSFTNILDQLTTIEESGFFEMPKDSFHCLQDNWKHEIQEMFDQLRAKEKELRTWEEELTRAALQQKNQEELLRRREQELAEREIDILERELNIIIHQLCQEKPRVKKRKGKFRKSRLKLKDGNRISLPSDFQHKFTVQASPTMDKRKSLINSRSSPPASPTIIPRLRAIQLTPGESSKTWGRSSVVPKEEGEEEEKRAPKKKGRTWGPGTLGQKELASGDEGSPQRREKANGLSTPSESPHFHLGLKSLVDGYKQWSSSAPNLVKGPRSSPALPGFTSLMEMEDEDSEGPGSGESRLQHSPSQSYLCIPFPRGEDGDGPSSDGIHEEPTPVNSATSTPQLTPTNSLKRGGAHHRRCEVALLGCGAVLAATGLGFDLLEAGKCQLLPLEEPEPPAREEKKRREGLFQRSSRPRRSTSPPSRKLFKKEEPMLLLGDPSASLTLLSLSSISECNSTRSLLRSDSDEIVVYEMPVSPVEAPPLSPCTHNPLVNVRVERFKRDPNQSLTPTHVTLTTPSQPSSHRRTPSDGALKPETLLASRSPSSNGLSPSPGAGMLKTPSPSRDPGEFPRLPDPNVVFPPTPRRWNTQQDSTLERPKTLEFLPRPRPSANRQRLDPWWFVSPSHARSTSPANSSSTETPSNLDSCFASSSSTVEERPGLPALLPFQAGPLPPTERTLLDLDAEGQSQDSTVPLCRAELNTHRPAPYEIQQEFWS
Sequence of MAPK13 (human) (O15264 whole entry, looked up): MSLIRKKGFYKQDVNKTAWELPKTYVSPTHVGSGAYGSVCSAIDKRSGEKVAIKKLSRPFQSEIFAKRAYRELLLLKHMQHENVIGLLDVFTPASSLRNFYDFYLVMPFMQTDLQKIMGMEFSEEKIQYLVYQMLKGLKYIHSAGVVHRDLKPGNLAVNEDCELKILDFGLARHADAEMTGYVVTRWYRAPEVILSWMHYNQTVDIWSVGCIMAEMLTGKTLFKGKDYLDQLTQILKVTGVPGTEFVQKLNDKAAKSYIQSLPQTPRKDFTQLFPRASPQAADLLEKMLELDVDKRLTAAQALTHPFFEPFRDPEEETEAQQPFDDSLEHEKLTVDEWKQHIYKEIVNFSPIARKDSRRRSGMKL
Sequence of CSNK2A1 (human) (P68400 whole entry, looked up): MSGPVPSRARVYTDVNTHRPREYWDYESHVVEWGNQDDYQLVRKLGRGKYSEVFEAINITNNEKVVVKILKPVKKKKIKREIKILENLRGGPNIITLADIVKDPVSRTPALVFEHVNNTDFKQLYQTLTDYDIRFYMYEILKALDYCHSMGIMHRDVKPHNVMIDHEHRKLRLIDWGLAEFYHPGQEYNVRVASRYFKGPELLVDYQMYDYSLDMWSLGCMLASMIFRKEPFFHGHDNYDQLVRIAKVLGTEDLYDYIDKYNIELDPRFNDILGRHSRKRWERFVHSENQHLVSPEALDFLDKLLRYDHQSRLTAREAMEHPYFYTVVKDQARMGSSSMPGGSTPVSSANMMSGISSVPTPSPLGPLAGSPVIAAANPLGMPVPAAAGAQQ
Sequence of PHKG1 (human) (Q16816 whole entry, looked up): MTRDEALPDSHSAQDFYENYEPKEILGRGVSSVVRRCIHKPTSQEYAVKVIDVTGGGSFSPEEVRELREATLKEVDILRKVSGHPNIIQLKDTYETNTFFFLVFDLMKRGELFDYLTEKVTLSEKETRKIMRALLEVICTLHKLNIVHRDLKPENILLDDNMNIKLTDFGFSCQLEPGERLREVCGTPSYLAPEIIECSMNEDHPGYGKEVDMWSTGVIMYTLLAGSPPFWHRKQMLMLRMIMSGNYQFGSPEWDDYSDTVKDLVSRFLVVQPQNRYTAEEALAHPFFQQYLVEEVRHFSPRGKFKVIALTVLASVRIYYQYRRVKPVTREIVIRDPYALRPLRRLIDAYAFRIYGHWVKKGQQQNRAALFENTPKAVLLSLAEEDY
Sequence of GSK3B (human) (P49841 whole entry, looked up): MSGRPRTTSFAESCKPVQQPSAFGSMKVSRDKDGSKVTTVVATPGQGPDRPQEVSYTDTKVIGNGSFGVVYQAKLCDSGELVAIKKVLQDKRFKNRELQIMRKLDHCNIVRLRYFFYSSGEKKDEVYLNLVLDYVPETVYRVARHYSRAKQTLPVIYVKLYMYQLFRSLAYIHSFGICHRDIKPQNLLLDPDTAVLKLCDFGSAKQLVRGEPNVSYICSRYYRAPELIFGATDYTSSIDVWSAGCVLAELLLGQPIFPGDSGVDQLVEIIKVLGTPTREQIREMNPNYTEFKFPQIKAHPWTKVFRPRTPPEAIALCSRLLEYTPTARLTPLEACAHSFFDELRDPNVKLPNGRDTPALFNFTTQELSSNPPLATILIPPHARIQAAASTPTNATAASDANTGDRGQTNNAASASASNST
Sequence of MAPK1 (human) (P28482 whole entry, looked up): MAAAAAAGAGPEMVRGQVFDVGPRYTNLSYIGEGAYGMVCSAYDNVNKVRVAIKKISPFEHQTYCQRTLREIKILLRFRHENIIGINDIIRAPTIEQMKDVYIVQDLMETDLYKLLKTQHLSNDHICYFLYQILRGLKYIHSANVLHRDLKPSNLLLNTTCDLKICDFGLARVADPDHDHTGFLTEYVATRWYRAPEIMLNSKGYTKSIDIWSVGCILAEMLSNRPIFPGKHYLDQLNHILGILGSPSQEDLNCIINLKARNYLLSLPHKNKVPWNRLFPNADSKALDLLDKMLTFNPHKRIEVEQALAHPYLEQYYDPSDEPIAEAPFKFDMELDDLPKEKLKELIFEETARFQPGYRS
Sequence of TTK (human) (P33981 whole entry, looked up): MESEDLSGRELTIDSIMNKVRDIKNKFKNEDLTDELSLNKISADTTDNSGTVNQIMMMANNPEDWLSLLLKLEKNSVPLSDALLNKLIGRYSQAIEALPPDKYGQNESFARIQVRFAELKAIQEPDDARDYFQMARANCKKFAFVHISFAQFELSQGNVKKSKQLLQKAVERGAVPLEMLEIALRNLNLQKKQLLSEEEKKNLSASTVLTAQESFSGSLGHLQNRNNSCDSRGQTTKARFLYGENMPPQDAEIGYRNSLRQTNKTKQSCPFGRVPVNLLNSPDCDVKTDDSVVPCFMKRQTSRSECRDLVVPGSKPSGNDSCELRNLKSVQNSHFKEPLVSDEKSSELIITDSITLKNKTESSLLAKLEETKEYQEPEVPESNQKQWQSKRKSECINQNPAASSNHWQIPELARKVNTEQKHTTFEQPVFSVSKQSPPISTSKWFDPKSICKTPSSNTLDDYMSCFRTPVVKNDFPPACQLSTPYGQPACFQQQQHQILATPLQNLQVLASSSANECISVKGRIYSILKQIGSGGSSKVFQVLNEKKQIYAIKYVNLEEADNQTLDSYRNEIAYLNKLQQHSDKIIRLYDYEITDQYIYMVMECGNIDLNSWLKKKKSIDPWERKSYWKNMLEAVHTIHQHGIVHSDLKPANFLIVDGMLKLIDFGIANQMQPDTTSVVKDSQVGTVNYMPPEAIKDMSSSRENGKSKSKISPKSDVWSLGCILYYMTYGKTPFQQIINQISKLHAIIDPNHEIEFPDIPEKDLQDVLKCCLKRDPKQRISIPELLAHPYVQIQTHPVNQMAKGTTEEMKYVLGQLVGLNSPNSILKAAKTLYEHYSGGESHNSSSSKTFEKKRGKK

CNc1nc(-c2ccc3c(N)n[nH]c3c2)cc(N2C[C@@H](C(=O)NC3CCCCC3)CC[C@H]2C)n1
residual activity (EEF2K (human); compound 0.01 µM): 108% | residual activity (EEF2K (human); compound 0.1 µM): 100% | residual activity (EEF2K (human); compound 1.0 µM): 105% | residual activity (EEF2K (human); compound 10.0 µM): 100% | residual activity (SRC (human); compound 0.01 µM): 101% | residual activity (SRC (human); compound 0.1 µM): 105% | residual activity (SRC (human); compound 1.0 µM): 95% | residual activity (MAP2K2 (human); compound 1.0 µM): 114% | residual activity (MAP2K2 (human); compound 10.0 µM): 94% | residual activity (AURKB (human); compound 0.01 µM): 105% | residual activity (AURKB (human); compound 0.1 µM): 106% | residual activity (AURKB (human); compound 1.0 µM): 72% | residual activity (AURKB (human); compound 10.0 µM): 29% | residual activity (NTRK1 (human); compound 1.0 µM): 94% | residual activity (NTRK1 (human); compound 10.0 µM): 84% | residual activity (MAP3K9 (human); compound 0.01 µM): 110% | residual activity (MAP3K9 (human); compound 0.1 µM): 111% | residual activity (MAP3K9 (human); compound 1.0 µM): 93% | residual activity (MAP3K9 (human); compound 10.0 µM): 78% | residual activity (LCK (mouse); compound 0.01 µM): 112% | residual activity (LCK (mouse); compound 0.1 µM): 107% | residual activity (LCK (mouse); compound 1.0 µM): 97% | residual activity (LCK (mouse); compound 10.0 µM): 99% | residual activity (INSRR (human); compound 0.01 µM): 111% | residual activity (INSRR (human); compound 0.1 µM): 111% | residual activity (INSRR (human); compound 1.0 µM): 117% | residual activity (MYLK (human); compound 0.01 µM): 116% | residual activity (MYLK (human); compound 0.1 µM): 113% | residual activity (MYLK (human); compound 1.0 µM): 99% | residual activity (MYLK (human); compound 10.0 µM): 62% | residual activity (PRKCZ (human); compound 0.01 µM): 113% | residual activity (PRKCZ (human); compound 0.1 µM): 105% | residual activity (PRKCZ (human); compound 1.0 µM): 74% | residual activity (PRKCZ (human); compound 10.0 µM): 23% | residual activity (ROCK2 (rat); compound 0.01 µM): 96% | residual activity (ROCK2 (rat); compound 0.1 µM): 92% | residual activity (ROCK2 (rat); compound 1.0 µM): 67% | residual activity (ROCK2 (rat); compound 10.0 µM): 27% | residual activity (MKNK1 (human); compound 0.01 µM): 106% | residual activity (MKNK1 (human); compound 0.1 µM): 108% | residual activity (MKNK1 (human); compound 1.0 µM): 111% | residual activity (MKNK1 (human); compound 10.0 µM): 92% | residual activity (MAPK13 (human); compound 0.01 µM): 106% | residual activity (MAPK13 (human); compound 0.1 µM): 113% | residual activity (MAPK13 (human); compound 1.0 µM): 93% | residual activity (MAPK13 (human); compound 10.0 µM): 101% | residual activity (MKNK2 (human); compound 0.01 µM): 91% | residual activity (MKNK2 (human); compound 1.0 µM): 80% | residual activity (MKNK2 (human); compound 10.0 µM): 94% | residual activity (PRKACA (human); compound 0.01 µM): 103% | residual activity (PRKACA (human); compound 0.1 µM): 111% | residual activity (PRKACA (human); compound 1.0 µM): 102% | residual activity (PRKACA (human); compound 10.0 µM): 84% | residual activity (TTK (human); compound 0.01 µM): 90% | residual activity (TTK (human); compound 0.1 µM): 98% | residual activity (TTK (human); compound 1.0 µM): 84% | residual activity (TTK (human); compound 10.0 µM): 61% | residual activity (MAPKAPK3 (human); compound 0.01 µM): 112% | residual activity (MAPKAPK3 (human); compound 0.1 µM): 112% | residual activity (MAPKAPK3 (human); compound 1.0 µM): 91% | residual activity (MAPKAPK3 (human); compound 10.0 µM): 68% | residual activity (RPS6KA1 KD1 KD2 (human); compound 0.01 µM): 123% | residual activity (RPS6KA1 KD1 KD2 (human); compound 0.1 µM): 113% | residual activity (RPS6KA1 KD1 KD2 (human); compound 1.0 µM): 86% | residual activity (RPS6KA1 KD1 KD2 (human); compound 10.0 µM): 40% | residual activity (PRKAA1 or PRKAA2 (rat); compound 0.01 µM): 107% | residual activity (PRKAA1 or PRKAA2 (rat); compound 0.1 µM): 111% | residual activity (PRKAA1 or PRKAA2 (rat); compound 1.0 µM): 91% | residual activity (PRKAA1 or PRKAA2 (rat); compound 10.0 µM): 44% | residual activity (CSNK2A1 (human); compound 0.01 µM): 103% | residual activity (CSNK2A1 (human); compound 0.1 µM): 104% | residual activity (CSNK2A1 (human); compound 1.0 µM): 91% | residual activity (CSNK2A1 (human); compound 10.0 µM): 111% | residual activity (GSK3B (human); compound 0.01 µM): 108% | residual activity (GSK3B (human); compound 0.1 µM): 111% | residual activity (GSK3B (human); compound 1.0 µM): 106% | residual activity ([1]; compound 0.01 µM): 104% | residual activity ([1]; compound 0.1 µM): 124% | residual activity ([1]; compound 1.0 µM): 110% | residual activity ([1]; compound 10.0 µM): 103% | residual activity (PHKG1 (human); compound 0.01 µM): 106% | residual activity (PHKG1 (human); compound 0.1 µM): 108% | residual activity (PHKG1 (human); compound 1.0 µM): 101% | residual activity (PHKG1 (human); compound 10.0 µM): 78% | residual activity (ERBB4 (human); compound 0.01 µM): 106% | residual activity (ERBB4 (human); compound 0.1 µM): 107% | residual activity (ERBB4 (human); compound 1.0 µM): 106% | residual activity (ERBB4 (human); compound 10.0 µM): 101% | residual activity (CSK (human); compound 0.01 µM): 103% | residual activity (CSK (human); compound 0.1 µM): 104% | residual activity (CSK (human); compound 1.0 µM): 100% | residual activity (CSK (human); compound 10.0 µM): 93% | residual activity (MAPK1 (human); compound 0.01 µM): 117% | residual activity (MAPK1 (human); compound 0.1 µM): 111% | residual activity (MAPK1 (human); compound 1.0 µM): 107% | residual activity (MAPK1 (human); compound 10.0 µM): 109% | residual activity (MINK1 (human); compound 0.01 µM): 121% | residual activity (MINK1 (human); compound 0.1 µM): 110% | residual activity (MINK1 (human); compound 1.0 µM): 89% | residual activity (MINK1 (human); compound 10.0 µM): 74% | residual activity (MELK (human); compound 0.01 µM): 115% | residual activity (MELK (human); compound 0.1 µM): 77% | residual activity (MELK (human); compound 1.0 µM): 31% | residual activity (MELK (human); compound 10.0 µM): 22% | residual activity (DAPK1 (human); compound 1.0 µM): 35% | residual activity (DAPK1 (human); compound 10.0 µM): 12% | residual activity (MARK4 (human); compound 0.01 µM): 106% | residual activity (MARK4 (human); compound 0.1 µM): 114% | residual activity (MARK4 (human); compound 1.0 µM): 99% | residual activity (MARK4 (human); compound 10.0 µM): 103% | residual activity (IKBKB (human); compound 0.01 µM): 105% | residual activity (IKBKB (human); compound 0.1 µM): 112% | residual activity (IKBKB (human); compound 1.0 µM): 118% | residual activity (IKBKB (human); compound 10.0 µM): 103% | residual activity (FGFR1 (human); compound 0.01 µM): 119% | residual activity (FGFR1 (human); compound 0.1 µM): 119% | residual activity (FGFR1 (human); compound 1.0 µM): 105% | residual activity (FGFR1 (human); compound 10.0 µM): 88% | residual activity (CDK2 CCNA2 (human); compound 0.01 µM): 104% | residual activity (CDK2 CCNA2 (human); compound 0.1 µM): 101% | residual activity (CDK2 CCNA2 (human); compound 1.0 µM): 103% | residual activity (CDK2 CCNA2 (human); compound 10.0 µM): 85% | residual activity (CHEK2 (human); compound 0.1 µM): 121% | residual activity (CHEK2 (human); compound 1.0 µM): 96% | residual activity (CHEK2 (human); compound 10.0 µM): 51% | residual activity (EPHB3 (human); compound 0.01 µM): 106% | residual activity (EPHB3 (human); compound 0.1 µM): 107% | residual activity (EPHB3 (human); compound 1.0 µM): 120% | residual activity (EPHB3 (human); compound 10.0 µM): 103%
